From PubChem BioAssay AID224 (DTP/NCI, 2004)
Where “and” joins values, the source holds several entries; their conditions need not be identical. Equal entries are not always repeated. Toxic doses and inconclusive results are not listed.

System: P335 leukemia ip, BDF1 mice, survival T/C %
Experiment: NCI In Vivo Anticancer Drug Screen. Data for tumor model P335 Leukemia (intraperitoneal) in B6D2F1 (BDF1) mice
Conditions: endpoint: mean survival time, higher = longer survival
Experimental: The antitumor activity of compounds was measured in mice bearing transplantable tumors. Survival or tumor size were measured and the results are expressed as the measurement made in the treated group (T) divided by the measurement made in the vehicle treated control group (C). The tumor model used in this assay is P335 Leukemia (intraperitoneal) in B6D2F1 (BDF1) mice

[1] = dose: 3.1 mg/kg/injection, schedule: Q01DX Z (ip), vehicle: carboxymethylcellulose (CMC)
[2] = dose: 500.0 mg/kg/injection, schedule: Q01DX Z (ip), vehicle: carboxymethylcellulose (CMC)
[3] = dose: 1000.0 mg/kg/injection, schedule: Q01DX Z (ip), vehicle: carboxymethylcellulose (CMC)
[4] = dose: 0.12 mg/kg/injection, schedule: Q01DX Z (ip), vehicle: carboxymethylcellulose (CMC)
[5] = dose: 0.47 mg/kg/injection, schedule: Q01DX Z (ip), vehicle: carboxymethylcellulose (CMC)
[6] = dose: 5.0 mg/kg/injection, schedule: Q01DX Z (ip), vehicle: carboxymethylcellulose (CMC)
[7] = dose: 10.0 mg/kg/injection, schedule: Q01DX Z (ip), vehicle: carboxymethylcellulose (CMC)
[8] = dose: 12.5 mg/kg/injection, schedule: Q01DX Z (ip), vehicle: carboxymethylcellulose (CMC)
[9] = dose: 25.0 mg/kg/injection, schedule: Q01DX Z (ip), vehicle: carboxymethylcellulose (CMC)
[10] = dose: 50.0 mg/kg/injection, schedule: Q01DX Z (ip), vehicle: carboxymethylcellulose (CMC)

Question: Which results are given for `CS(=O)(=O)OCCCl`?
Answer: T/C (dose: 0.8 mg/kg/injection, schedule: Q01DX Z (ip), vehicle: carboxymethylcellulose (CMC)): 98 % of control; T/C (dose: 1.6 mg/kg/injection, schedule: Q01DX Z (ip), vehicle: carboxymethylcellulose (CMC)): 93 % of control; T/C [1]: 102 % of control; T/C (dose: 6.2 mg/kg/injection, schedule: Q01DX Z (ip), vehicle: carboxymethylcellulose (CMC)): 86 % of control

Question: `O=CN(O)CC(=O)O` was tested. Which T/C (dose: 125.0 mg/kg/injection, schedule: Q01DX Z (ip), vehicle: none) did it give?
Answer: 87 % of control

Question: What about the T/C (dose: 250.0 mg/kg/injection, schedule: Q01DX Z (ip), vehicle: none) of the same compound?
Answer: 95 % of control

Question: What about the T/C [2] of the same compound?
Answer: 109 % of control

Question: And the T/C (dose: 500.0 mg/kg/injection, schedule: Q01DX Z (ip), vehicle: none)?
Answer: 89 % of control

Question: What about the T/C [3] of the same compound?
Answer: 93 % of control

Question: Which T/C [4] does the source give for `Cc1cc(N(CCCl)CCCl)ccc1N=Nc1ccccc1C(=O)O` here?
Answer: 90 % of control

Question: And the T/C (dose: 0.23 mg/kg/injection, schedule: Q01DX Z (ip), vehicle: carboxymethylcellulose (CMC))?
Answer: 106 % of control

Question: What about the T/C [5] of the same compound?
Answer: 106 % of control

Question: And the T/C (dose: 0.94 mg/kg/injection, schedule: Q01DX Z (ip), vehicle: carboxymethylcellulose (CMC))?
Answer: 94 % of control

Question: Which results are given for `C=CC(CN1CC1)OC(C)=O` (configuration not stated)?
Answer: T/C [5]: 106 % of control; T/C (dose: 0.95 mg/kg/injection, schedule: Q01DX Z (ip), vehicle: carboxymethylcellulose (CMC)): 110 % of control; T/C (dose: 1.9 mg/kg/injection, schedule: Q01DX Z (ip), vehicle: carboxymethylcellulose (CMC)): 103 % of control

Question: Which results are given for `C[C@]12CCC(=O)C=C1CC[C@@H]1[C@@H]2CC[C@@]2(C)[C@H]1CC[C@]2(C)O`?
Answer: T/C (dose: 0.5 mg/kg/injection, schedule: Q01DX Z (sc), vehicle: steriod suspending solution): 117 % of control; T/C (dose: 1.0 mg/kg/injection, schedule: Q01DX Z (sc), vehicle: steriod suspending solution): 96 % of control; T/C (dose: 2.0 mg/kg/injection, schedule: Q01DX Z (sc), vehicle: steriod suspending solution): 121 % of control; T/C (dose: 4.0 mg/kg/injection, schedule: Q01DX Z (sc), vehicle: steriod suspending solution): 116 % of control; T/C (dose: 8.0 mg/kg/injection, schedule: Q01DX Z (sc), vehicle: steriod suspending solution): 118 % of control; T/C (dose: 16.0 mg/kg/injection, schedule: Q01DX Z (sc), vehicle: steriod suspending solution): 116 % of control; T/C (dose: 31.0 mg/kg/injection, schedule: Q01DX Z (sc), vehicle: steriod suspending solution): 116 % of control; T/C (dose: 62.5 mg/kg/injection, schedule: Q01DX Z (sc), vehicle: steriod suspending solution): 106 % of control and 111 % of control; T/C (dose: 125.0 mg/kg/injection, schedule: Q01DX Z (sc), vehicle: steriod suspending solution): 106 % of control; T/C (dose: 250.0 mg/kg/injection, schedule: Q01DX Z (sc), vehicle: steriod suspending solution): 109 % of control; T/C (dose: 500.0 mg/kg/injection, schedule: Q01DX Z (sc), vehicle: steriod suspending solution): 100 % of control

Question: For `CC(CCC(C)OS(C)(=O)=O)OS(C)(=O)=O` (configuration not stated), which T/C [6] is on record?
Answer: 88 % of control

Question: What about the T/C [7] of the same compound?
Answer: 90 % of control

Question: What about the T/C (dose: 20.0 mg/kg/injection, schedule: Q01DX Z (ip), vehicle: carboxymethylcellulose (CMC)) of the same compound?
Answer: 87 % of control

Question: What does the source list for `S=c1nc[nH]c2nc[nH]c12`?
Answer: T/C (dose: 37.5 mg/kg/injection, schedule: Q01DX Z (ip), vehicle: other): 116 % of control; T/C (dose: 75.0 mg/kg/injection, schedule: Q01DX Z (ip), vehicle: other): 114 % of control; T/C (dose: 300.0 mg/kg/injection, schedule: Q01DX Z (ip), vehicle: other): 122 % of control

Question: Which T/C [8] does the source give for `CC(=O)Nc1ccc2nc3ccc(NC(C)=O)cc3[n+](-c3ccccc3)c2c1` here?
Answer: 98 % of control

Question: How did the T/C (dose: 31.25 mg/kg/injection, schedule: Q01DX Z (ip), vehicle: carboxymethylcellulose (CMC)) turn out when `CN(C)c1nc(N(C)C)nc(N(C)C)n1` was run?
Answer: 113 % of control

Question: What about the T/C (dose: 62.5 mg/kg/injection, schedule: Q01DX Z (ip), vehicle: carboxymethylcellulose (CMC)) of the same compound?
Answer: 111 % of control

Question: What about the T/C (dose: 125.0 mg/kg/injection, schedule: Q01DX Z (ip), vehicle: carboxymethylcellulose (CMC)) of the same compound?
Answer: 113 % of control

Question: What about the T/C [2] of the same compound?
Answer: 111 % of control

Question: What about the T/C [3] of the same compound?
Answer: 93 % of control

Question: How did the T/C [4] turn out when `NC(=O)N(CCCl)N=O` was run?
Answer: 94 % of control

Question: What about the T/C (dose: 0.25 mg/kg/injection, schedule: Q01DX Z (ip), vehicle: carboxymethylcellulose (CMC)) of the same compound?
Answer: 114 % of control

Question: What about the T/C (dose: 1.0 mg/kg/injection, schedule: Q01DX Z (ip), vehicle: carboxymethylcellulose (CMC)) of the same compound?
Answer: 110 % of control

Question: Which T/C (dose: 187.5 mg/kg/injection, schedule: Q01DX Z (ip), vehicle: carboxymethylcellulose (CMC)) does the source give for `O=c1cn[nH]c(=O)[nH]1` here?
Answer: 88 % of control

Question: And the T/C (dose: 375.0 mg/kg/injection, schedule: Q01DX Z (ip), vehicle: carboxymethylcellulose (CMC))?
Answer: 88 % of control

Question: And the T/C (dose: 750.0 mg/kg/injection, schedule: Q01DX Z (ip), vehicle: carboxymethylcellulose (CMC))?
Answer: 98 % of control

Question: Which results are given for `N#[N+]c1cnc([O-])[nH]c1=O`?
Answer: T/C (dose: 0.31 mg/kg/injection, schedule: Q01DX Z (ip), vehicle: carboxymethylcellulose (CMC)): 96 % of control; T/C (dose: 0.62 mg/kg/injection, schedule: Q01DX Z (ip), vehicle: carboxymethylcellulose (CMC)): 123 % of control; T/C (dose: 1.25 mg/kg/injection, schedule: Q01DX Z (ip), vehicle: carboxymethylcellulose (CMC)): 103 % of control; T/C [6]: 124 % of control; T/C [7]: 103 % of control and 104 % of control and 110 % of control

Question: Which T/C (dose: 23.43 mg/kg/injection, schedule: Q01DX Z (sc), vehicle: steriod suspending solution) does the source give for `CCC(=O)O[C@H]1CC[C@H]2[C@@H]3CCC4=CC(=O)CC[C@]4(C)[C@H]3CC[C@]12C` here?
Answer: 114 % of control

Question: And the T/C (dose: 60.0 mg/kg/injection, schedule: Q01DX Z (sc), vehicle: steriod suspending solution)?
Answer: 106 % of control

Question: And the T/C (dose: 93.75 mg/kg/injection, schedule: Q01DX Z (sc), vehicle: steriod suspending solution)?
Answer: 114 % of control

Question: What about the T/C (dose: 300.0 mg/kg/injection, schedule: Q01DX Z (sc), vehicle: steriod suspending solution) of the same compound?
Answer: 122 % of control

Question: What about the T/C (dose: 375.0 mg/kg/injection, schedule: Q01DX Z (sc), vehicle: steriod suspending solution) of the same compound?
Answer: 107 % of control

Question: And the T/C (dose: 1500.0 mg/kg/injection, schedule: Q01DX Z (sc), vehicle: steriod suspending solution)?
Answer: 98 % of control and 113 % of control

Question: Which T/C [1] does the source give for `CSc1ncnc2c1ncn2C1OC(CO)C(O)C1O` (configuration not stated) here?
Answer: 93 % of control

Question: And the T/C (dose: 6.25 mg/kg/injection, schedule: Q01DX Z (ip), vehicle: carboxymethylcellulose (CMC))?
Answer: 110 % of control

Question: And the T/C [9]?
Answer: 179 % of control

Question: What about the T/C [10] of the same compound?
Answer: 104 % of control

Question: Which T/C (dose: 50.0 mg/kg/injection, schedule: Q01DX Z (ip), vehicle: other) does the source give for `Cc1n[nH]c(=O)[nH]c1=O` here?
Answer: 97 % of control

Question: What about the T/C (dose: 100.0 mg/kg/injection, schedule: Q01DX Z (ip), vehicle: other) of the same compound?
Answer: 97 % of control

Question: And the T/C (dose: 200.0 mg/kg/injection, schedule: Q01DX Z (ip), vehicle: other)?
Answer: 102 % of control

Question: And the T/C (dose: 400.0 mg/kg/injection, schedule: Q01DX Z (ip), vehicle: other)?
Answer: 103 % of control

Question: How did the T/C [9] turn out when `C[C@@H]1C[C@H]2CC[C@H](O2)[C@H](C)C(=O)O[C@@H](C)C[C@@H]2CC[C@@H](O2)[C@@H](C)C(=O)O[C@H](C)C[C@H]2CC[C@H](O2)[C@H](C)C(=O)O[C@@H](C)C[C@@H]2CC[C@@H](O2)[C@@H](C)C(=O)O1` was run?
Answer: 96 % of control

Question: And the T/C [10]?
Answer: 88 % of control

Question: What about the T/C (dose: 100.0 mg/kg/injection, schedule: Q01DX Z (ip), vehicle: carboxymethylcellulose (CMC)) of the same compound?
Answer: 86 % of control

Question: With `Oc1cc(CN(CCCl)CCCl)c(O)cc1CN(CCCl)CCCl` as the compound, how does the T/C (dose: 0.24 mg/kg/injection, schedule: Q01DX Z (sc), vehicle: steriod suspending solution) read?
Answer: 95 % of control

Question: What about the T/C (dose: 0.47 mg/kg/injection, schedule: Q01DX Z (sc), vehicle: steriod suspending solution) of the same compound?
Answer: 109 % of control

Question: And the T/C (dose: 0.94 mg/kg/injection, schedule: Q01DX Z (sc), vehicle: steriod suspending solution)?
Answer: 103 % of control

Question: What about the T/C (dose: 1.87 mg/kg/injection, schedule: Q01DX Z (sc), vehicle: steriod suspending solution) of the same compound?
Answer: 104 % of control

Question: What about the T/C (dose: 7.5 mg/kg/injection, schedule: Q01DX Z (sc), vehicle: steriod suspending solution) of the same compound?
Answer: 87 % of control

Question: `CSc1ncnc2nc[nH]c12` was tested. Which T/C [8] did it give?
Answer: 96 % of control

Question: What about the T/C [10] of the same compound?
Answer: 90 % of control

Question: And the T/C (dose: 50.0 mg/kg/injection, schedule: Q01DX Z (ip), vehicle: methylcellulose (MC))?
Answer: 87 % of control

Question: Which T/C [9] does the source give for `CN(Cc1cnc2nc(N)nc(N)c2n1)c1c(Cl)cc(C(=O)NC(CCC(=O)O)C(=O)O)cc1Cl` (configuration not stated) here?
Answer: 104 % of control and 121 % of control

Question: `CCn1cnc2c(=S)nc[nH]c21` was tested. Which T/C (dose: 15.6 mg/kg/injection, schedule: Q01DX Z (ip), vehicle: carboxymethylcellulose (CMC)) did it give?
Answer: 96 % of control
